Test [1] concerns the target T1, hGIPR (Homo sapiens, UniProt P48546).
T1 construct: expressed in transfected cells
T1 sequence (P48546 22-466): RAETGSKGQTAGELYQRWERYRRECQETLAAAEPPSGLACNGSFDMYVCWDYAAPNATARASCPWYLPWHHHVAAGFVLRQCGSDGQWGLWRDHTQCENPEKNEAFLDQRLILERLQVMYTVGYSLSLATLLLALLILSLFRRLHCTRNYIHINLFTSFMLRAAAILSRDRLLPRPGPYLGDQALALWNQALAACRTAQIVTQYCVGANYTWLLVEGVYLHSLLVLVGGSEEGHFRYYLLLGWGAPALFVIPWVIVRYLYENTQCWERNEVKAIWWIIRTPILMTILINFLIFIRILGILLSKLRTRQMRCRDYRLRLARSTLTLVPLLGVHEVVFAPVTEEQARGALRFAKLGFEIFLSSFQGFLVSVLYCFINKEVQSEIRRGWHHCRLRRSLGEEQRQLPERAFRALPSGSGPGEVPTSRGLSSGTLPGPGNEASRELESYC
The test is described as follows: Functional cAMP formation (HTRF) in HEK-293 clonal cells expressing hGIPR, 0.1% bovine casein, without or with 1.0% human serum albumin. It counts as cell-based. The following applies: for Emax: 37° C., 0.1% bovine casein, arithmetic mean; for EC50: cAMP, incubated at 37° C., 0.1% bovine casein (no human serum albumin), geometric mean. As for the experimental part:
(§1) After a 30-min incubation at 37° C., the resulting increase in intracellular cAMP is quantitatively determined using a CisBio cAMP Dynamic 2 HTRF Assay Kit (62AM4PEJ). Briefly, cAMP levels within the cell are detected by adding the cAMP-d2 conjugate in cell lysis buffer (10 µL) followed by the antibody anti-cAMP-Eu^3+-Cryptate, also in cell lysis buffer (10 µL). The resulting competitive assay is incubated for at least 60 min at room temperature, and then is detected using a PerkinElmer Envision® instrument with excitation at 320 nm and emission at 665 nm and 620 nm. Envision units (emission at 665 nm/620 nm* 10,000) are inversely proportional to the amount of cAMP present and are converted to nM cAMP per well us-ing a cAMP standard curve. […] A relative EC50 value and percent top (Emax) are derived by non-linear regression analysis using the percent maximal response vs. the concentration of peptide added, fitted to a four-parameter logistic equation.
For orientation: Changes in cAMP serve as a functional read-out for many G protein-coupled receptors.

Test [2] deals with T2, hGCGR (Homo sapiens, UniProt P47871).
T2 construct: expressed in transfected cells
T2 sequence (P47871 26-477): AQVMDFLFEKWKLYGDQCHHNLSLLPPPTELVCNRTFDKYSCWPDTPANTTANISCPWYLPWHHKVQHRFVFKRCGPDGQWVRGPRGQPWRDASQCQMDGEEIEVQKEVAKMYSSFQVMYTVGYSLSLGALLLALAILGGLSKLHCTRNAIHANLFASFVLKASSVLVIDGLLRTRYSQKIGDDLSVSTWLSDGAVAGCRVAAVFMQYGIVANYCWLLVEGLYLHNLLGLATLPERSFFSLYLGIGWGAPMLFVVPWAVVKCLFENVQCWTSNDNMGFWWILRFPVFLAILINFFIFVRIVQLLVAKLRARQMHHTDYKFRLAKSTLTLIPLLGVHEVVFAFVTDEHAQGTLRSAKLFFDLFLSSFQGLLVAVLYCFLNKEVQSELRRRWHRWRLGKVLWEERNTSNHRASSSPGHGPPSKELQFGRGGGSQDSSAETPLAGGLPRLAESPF
The test is described as follows: Functional cAMP formation (HTRF) in HEK-293 clonal cells expressing hGCGR, 0.1% bovine casein, without or with 1.0% human serum albumin. Format: cell-based. As to conditions: cAMP, incubated at 37° C., 0.1% bovine casein (no human serum albumin), geometric mean. As for the experimental part: as §1

[3] abbreviates: HEK293, percent of maximal response to GIP(1-42)NH2, read-out: hGIPR Emax, % ± SEM.
Where [4] appears, read: read-out: hGCGR EC50, nM (SEM, n).
Setting [5] is: read-out: hGIPR EC50, nM (SEM, n).

SMILES strings stand for the structures. Where two headings read alike, the source gives them in different places.

As a reminder, the Emax is the greatest response seen or fitted, relative to the assay's reference. Broadly, the EC50 is the concentration needed to bring the measured effect to its halfway point. Take `CC[C@H](C)[C@H](NC(=O)[C@H](CC(C)C)NC(=O)[C@](C)(Cc1ccc(O)cc1)NC(=O)[C@@H](CCC(=O)O)NC(=O)[C@@H](NC(=O)[C@H](Cc1ccccc1)NC(=O)[C@H](CCC(=O)O)NC(=O)C(C)(C)NC(=O)[C@H](CCC(N)=O)NC(=O)[C@H](C)NC(=O)[C@H](CCCCNC(=O)COCCOCCNC(=O)COCCOCCNC(=O)CC[C@H](NC(=O)CCCc1ccc(C(C)(C)C)cc1)C(=O)O)NC(=O)[C@H](CCCN)NC(=O)[C@H](CC(=O)O)NC(=O)[C@H](CC(C)C)NC(=O)[C@](C)(CC(C)C)NC(=O)[C@@H](NC(=O)C(C)(C)NC(=O)[C@@H](NC(=O)[C@H](CC(=O)O)NC(=O)[C@H](CO)NC(=O)[C@@H](NC(=O)[C@](C)(Cc1ccccc1F)NC(=O)[C@@H](NC(=O)CNC(=O)[C@H](CCC(=O)O)NC(=O)C(C)(C)NC(=O)[C@@H](N)Cc1ccc(O)cc1)[C@@H](C)O)[C@@H](C)O)C(C)C)[C@@H](C)CC)[C@@H](C)CC)C(=O)N[C@@H](CCC(=O)O)C(=O)NCC(=O)NCC(=O)N[C@@H](CCCCNC(=O)COCCOCCNC(=O)COCCOCCNC(=O)CC[C@H](NC(=O)CCCc1ccc(C(C)(C)C)cc1)C(=O)O)C(=O)N[C@@H](CO)C(=O)N[C@@H](CO)C(=O)NCC(=O)N[C@@H](C)C(=O)N1CCC[C@H]1C(=O)N1CCC[C@H]1C(=O)N1CCC[C@H]1C(=O)N[C@@H](CO)C(N)=O` [Example 177]: the Emax in test [1] (setting [3]) worked out at 113%. The EC50 in test [2] (setting [4]) was > 9950 nM.
Turning to `CC[C@H](C)[C@H](NC(=O)[C@H](CCCN)NC(=O)[C@H](CC(=O)O)NC(=O)[C@H](CC(C)C)NC(=O)[C@](C)(CC(C)C)NC(=O)[C@@H](NC(=O)[C@H](CO)NC(=O)[C@H](CCCCNC(=O)COCCOCCNC(=O)COCCOCCNC(=O)CC[C@H](NC(=O)CCCCCCCCCCCCC(=O)O)C(=O)O)NC(=O)[C@H](CC(=O)O)NC(=O)[C@H](CO)NC(=O)[C@@H](NC(=O)[C@](C)(Cc1ccccc1F)NC(=O)[C@@H](NC(=O)CNC(=O)[C@H](CCC(=O)O)NC(=O)C(C)(C)NC(=O)[C@@H](N)Cc1ccc(O)cc1)[C@@H](C)O)[C@@H](C)O)[C@@H](C)CC)C(=O)N[C@@H](C)C(=O)N[C@@H](CCC(N)=O)C(=O)NC(C)(C)C(=O)N[C@@H](CCC(=O)O)C(=O)N[C@@H](Cc1ccccc1)C(=O)N[C@H](C(=O)N[C@@H](CCCCNC(=O)COCCOCCNC(=O)COCCOCCNC(=O)CC[C@H](NC(=O)CCCCCCCCCCCCC(=O)O)C(=O)O)C(=O)N[C@@](C)(Cc1ccc(O)cc1)C(=O)N[C@@H](CC(C)C)C(=O)N[C@H](C(=O)N[C@@H](CCC(=O)O)C(=O)NCC(=O)NCC(=O)N1CCC[C@H]1C(=O)N[C@@H](CO)C(=O)N[C@@H](CO)C(=O)NCC(=O)N[C@@H](C)C(=O)N1CCC[C@H]1C(=O)N1CCC[C@H]1C(=O)N1CCC[C@H]1C(=O)N[C@@H](CO)C(N)=O)[C@@H](C)CC)[C@@H](C)CC` [Example 106], in test [1] (HEK293, read-out: hGIPR Emax, % ± SEM, percent of maximal response to GIP(1-42)NH2), the Emax came to 98.7 ± 3.32%. Besides, the half-maximal effective concentration (EC50) was 0.0385 nM in test [1] (hGIPR EC50, nM (SEM, n)) and > 9950 nM in test [2] (hGCGR EC50, nM (SEM, n)).
Consider `CC[C@H](C)[C@H](NC(=O)[C@H](CC(C)C)NC(=O)[C@](C)(Cc1ccc(O)cc1)NC(=O)[C@@H](CCC(=O)O)NC(=O)[C@@H](NC(=O)[C@H](Cc1ccccc1)NC(=O)[C@H](CCC(=O)O)NC(=O)C(C)(C)NC(=O)[C@H](CCC(N)=O)NC(=O)[C@H](C)NC(=O)[C@H](CCC(N)=O)NC(=O)[C@H](CCCN)NC(=O)[C@H](CC(=O)O)NC(=O)[C@H](CC(C)C)NC(=O)[C@](C)(CC(C)C)NC(=O)[C@@H](NC(=O)[C@H](CO)NC(=O)[C@H](Cc1ccncc1)NC(=O)[C@H](CC(=O)O)NC(=O)[C@H](CO)NC(=O)[C@@H](NC(=O)[C@](C)(Cc1ccccc1F)NC(=O)[C@@H](NC(=O)CNC(=O)[C@H](CCC(=O)O)NC(=O)C(C)(C)NC(=O)[C@@H](N)Cc1ccc(O)cc1)[C@@H](C)O)[C@@H](C)O)[C@@H](C)CC)[C@@H](C)CC)C(=O)N[C@@H](CCCCNC(=O)COCCOCCNC(=O)COCCOCCNC(=O)CC[C@H](NC(=O)CCCCCCCCCCCCC(=O)O)C(=O)O)C(=O)NCC(=O)NCC(=O)N[C@@H](CCCCNC(=O)COCCOCCNC(=O)COCCOCCNC(=O)CC[C@H](NC(=O)CCCCCCCCCCCCC(=O)O)C(=O)O)C(=O)N[C@@H](CO)C(=O)N[C@@H](CO)C(=O)NCC(=O)N[C@@H](C)C(=O)N1CCC[C@H]1C(=O)N1CCC[C@H]1C(=O)N1CCC[C@H]1C(=O)N[C@@H](CO)C(N)=O` [Example 86], for which the Emax in test [1] (setting [3]) is 94.2 ± 1.16%. Besides, the EC50 in test [1] (setting [5]) is 0.0184 nM; in test [2] (setting [4]), > 9950 nM.
The matching figures for `CC[C@H](C)[C@H](NC(=O)[C@H](CC(C)C)NC(=O)[C@](C)(Cc1ccc(O)cc1)NC(=O)[C@@H](CCC(=O)O)NC(=O)[C@@H](NC(=O)[C@H](Cc1ccccc1)NC(=O)[C@H](CCC(=O)O)NC(=O)C(C)(C)NC(=O)[C@H](CCC(N)=O)NC(=O)[C@H](C)NC(=O)[C@H](CCCCNC(=O)COCCOCCNC(=O)COCCOCCNC(=O)CC[C@H](NC(=O)CCCCCCOc1ccc(C(=O)O)cc1)C(=O)O)NC(=O)[C@H](CCCN)NC(=O)[C@H](CC(=O)O)NC(=O)[C@H](CC(C)C)NC(=O)[C@](C)(CC(C)C)NC(=O)[C@@H](NC(=O)[C@H](CO)NC(=O)[C@H](Cc1ccncc1)NC(=O)[C@H](CC(=O)O)NC(=O)[C@H](CO)NC(=O)[C@@H](NC(=O)[C@](C)(Cc1ccccc1F)NC(=O)[C@@H](NC(=O)CNC(=O)[C@H](CCC(=O)O)NC(=O)C(C)(C)NC(=O)[C@@H](N)Cc1ccc(O)cc1)[C@@H](C)O)[C@@H](C)O)[C@@H](C)CC)[C@@H](C)CC)C(=O)N[C@@H](CCC(=O)O)C(=O)NCC(=O)NCC(=O)N[C@@H](CCCCNC(=O)COCCOCCNC(=O)COCCOCCNC(=O)CC[C@H](NC(=O)CCCCCCOc1ccc(C(=O)O)cc1)C(=O)O)C(=O)N[C@@H](CO)C(=O)N[C@@H](CO)C(=O)NCC(=O)N[C@@H](C)C(=O)N1CCC[C@H]1C(=O)N1CCC[C@H]1C(=O)N1CCC[C@H]1C(=O)N[C@@H](CO)C(N)=O` [Example 125]: 94.4%, 0.0547 nM and > 9950 nM.
As to `CCCCCCCCCCCC(=O)N[C@@H](CCC(=O)NCCOCCOCC(=O)NCCOCCOCC(=O)NCCCC[C@H](NC(=O)[C@H](CCCN)NC(=O)[C@H](CC(=O)O)NC(=O)[C@H](CC(C)C)NC(=O)[C@](C)(CC(C)C)NC(=O)[C@@H](NC(=O)[C@H](CO)NC(=O)[C@H](CCCCNC(=O)COCCOCCNC(=O)COCCOCCNC(=O)CC[C@H](NC(=O)CCCCCCCCCCC)C(=O)O)NC(=O)[C@H](CC(=O)O)NC(=O)[C@H](CO)NC(=O)[C@@H](NC(=O)[C@](C)(Cc1ccccc1F)NC(=O)[C@@H](NC(=O)CNC(=O)[C@H](CCC(=O)O)NC(=O)C(C)(C)NC(=O)[C@@H](N)Cc1ccc(O)cc1)[C@@H](C)O)[C@@H](C)O)[C@@H](C)CC)C(=O)N[C@@H](C)C(=O)N[C@@H](CCC(N)=O)C(=O)NC(C)(C)C(=O)N[C@@H](CCC(=O)O)C(=O)N[C@@H](Cc1ccccc1)C(=O)N[C@H](C(=O)N[C@H](CCC(=O)O)C(=O)N[C@@](C)(Cc1ccc(O)cc1)C(=O)N[C@@H](CC(C)C)C(=O)N[C@H](C(=O)N[C@@H](CCC(=O)O)C(=O)NCC(=O)NCC(=O)N1CCC[C@H]1C(=O)N[C@@H](CO)C(=O)N[C@@H](CO)C(=O)NCC(=O)N[C@@H](C)C(=O)N1CCC[C@H]1C(=O)N1CCC[C@H]1C(=O)N1CCC[C@H]1C(=O)N[C@@H](CO)C(N)=O)[C@@H](C)CC)[C@@H](C)CC)C(=O)O` [Example 136], the Emax in test [1] (setting [3]) turned out to be 97.4 ± 4.23%. Further, the EC50 in test [2] (setting [4]) is > 9950 nM.

The record behind these values is patent publication US20230265151A1, “GIP/GLP1 CO-AGONIST COMPOUNDS” (priority 2020, published 2023).
